Columns and labels:
Type in all cases: in vivo
Details in all cases: evaluated after 13 days
[1] = test system: Alopecurus myosuroides (ALOMY); assay: B1 pre-emergence herbicidal activity
Procedure: (§1) Seeds of a variety of test species were sown in standard soil in pots: Triticum aestivium (TRZAW), Oryza sativa (ORYSA), Avena fatua (AVEFA), Alopecurus myosuroides (ALOMY), Echinochloa crus-galli (ECHCG), Lolium perenne (LOLPE). After cultivation for one day (pre-emergence) under controlled conditions in a glasshouse (at 24/16° C., day/night; 14 hours light; 65% humidity), the plants were sprayed with an aqueous spray solution derived from the formulation of the technical active ingredient in acetone/water (50:50) solution containing 0.5% Tween 20 (polyoxyethelyene sorbitan monolaurate, CAS RN 9005-64-5). The test plants were then grown in a glasshouse under controlled conditions (at 24/16° C., day/night; 14 hours light; 65% humidity) and watered twice daily. After 13 days, the test was evaluated (5=total damage to plant; 0=no damage to plant).

[2] = test system: Avena fatua (AVEFA); assay: B1 pre-emergence herbicidal activity
Procedure: as §1

[3] = test system: Echinochloa crus-galli (ECHCG); assay: B1 pre-emergence herbicidal activity
Procedure: as §1

[4] = test system: Lolium perenne (LOLPE); assay: B1 pre-emergence herbicidal activity
Procedure: as §1

[5] = test system: Oryza sativa (ORYSA); assay: B1 pre-emergence herbicidal activity
Procedure: as §1

[6] = test system: Triticum aestivium (TRZAW); assay: B1 pre-emergence herbicidal activity
Procedure: as §1

[7] = test system: Alopecurus myosuroides (ALOMY); assay: B2 post-emergence herbicidal activity
Procedure: (§2) Seeds of a variety of test species were sown in standard soil in pots: Triticum aestivium (TRZAW), Oryza sativa (ORYSA), Avena fatua (AVEFA), Alopecurus myosuroides (ALOMY), Echinochloa crus-galli (ECHCG), Lolium perenne (LOLPE). After 8 days cultivation (post-emergence) under controlled conditions in a glasshouse (at 24/16° C., day/night; 14 hours light; 65% humidity), the plants were sprayed with an aqueous spray solution derived from the formulation of the technical active ingredient in acetone/water (50:50) solution containing 0.5% Tween 20 (polyoxyethelyene sorbitan monolaurate, CAS RN 9005-64-5). The test plants were then grown in a glasshouse under controlled conditions (at 24/16° C., day/night; 14 hours light; 65% humidity) and watered twice daily. After 13 days, the test was evaluated (5=total damage to plant; 0=no damage to plant).

[8] = test system: Avena fatua (AVEFA); assay: B2 post-emergence herbicidal activity
Procedure: as §2

[9] = test system: Echinochloa crus-galli (ECHCG); assay: B2 post-emergence herbicidal activity
Procedure: as §2

[10] = test system: Lolium perenne (LOLPE); assay: B2 post-emergence herbicidal activity
Procedure: as §2

[11] = test system: Oryza sativa (ORYSA); assay: B2 post-emergence herbicidal activity
Procedure: as §2

[12] = test system: Triticum aestivium (TRZAW); assay: B2 post-emergence herbicidal activity
Procedure: as §2

Structure (SMILES) | Control of ALOMY after pre-emergence application (damage score 0-5) ([1]; Rate 1000 g/ha) | Control of AVEFA after pre-emergence application (damage score 0-5) ([2]; Rate 1000 g/ha) | Control of ECHCG after pre-emergence application (damage score 0-5) ([3]; Rate 1000 g/ha) | Control of LOLPE after pre-emergence application (damage score 0-5) ([4]; Rate 1000 g/ha) | Control of ORYSA after pre-emergence application (damage score 0-5) ([5]; Rate 1000 g/ha) | Control of TRZAW after pre-emergence application (damage score 0-5) ([6]; Rate 1000 g/ha) | Control of ALOMY after post-emergence application (damage score 0-5) ([7]; Rate 1000 g/ha) | Control of AVEFA after post-emergence application (damage score 0-5) ([8]; Rate 1000 g/ha) | Control of ECHCG after post-emergence application (damage score 0-5) ([9]; Rate 1000 g/ha) | Control of LOLPE after post-emergence application (damage score 0-5) ([10]; Rate 1000 g/ha) | Control of ORYSA after post-emergence application (damage score 0-5) ([11]; Rate 1000 g/ha) | Control of TRZAW after post-emergence application (damage score 0-5) ([12]; Rate 1000 g/ha) | other results
CN(C(=O)OC(C)(C)C)c1cc(-c2cccnc2)nn1C [Compound A1, tert-butyl N-methyl-N-[2-methyl-5-(3-pyridyl)pyrazol-3-yl]carbamate] | 0 | 1 | 3 | 1 | 1 | 0 | 3 | 1 | 5 | 1 | 4 | 1 | 
Cc1nn(-c2cncnc2)cc1NC(=O)OC(C)(C)C [Compound A3, tert-butyl N-(3-methyl-1-pyrimidin-5-yl-pyrazol-4-yl)carbamate] |  |  |  |  |  |  |  |  |  |  |  |  | Control of ALOMY after pre-emergence application (damage score 0-5) ([1]; Rate 500 g/ha): 0; Control of AVEFA after pre-emergence application (damage score 0-5) ([2]; Rate 500 g/ha): 0; Control of ECHCG after pre-emergence application (damage score 0-5) ([3]; Rate 500 g/ha): 4; Control of LOLPE after pre-emergence application (damage score 0-5) ([4]; Rate 500 g/ha): 0; Control of ORYSA after pre-emergence application (damage score 0-5) ([5]; Rate 500 g/ha): 1; Control of TRZAW after pre-emergence application (damage score 0-5) ([6]; Rate 500 g/ha): 1; Control of ALOMY after post-emergence application (damage score 0-5) ([7]; Rate 500 g/ha): 2; Control of AVEFA after post-emergence application (damage score 0-5) ([8]; Rate 500 g/ha): 4; Control of ECHCG after post-emergence application (damage score 0-5) ([9]; Rate 500 g/ha): 5; Control of LOLPE after post-emergence application (damage score 0-5) ([10]; Rate 500 g/ha): 2; Control of ORYSA after post-emergence application (damage score 0-5) ([11]; Rate 500 g/ha): 1; Control of TRZAW after post-emergence application (damage score 0-5) ([12]; Rate 500 g/ha): 1
CC(C)(C)OC(=O)Nc1cn(-c2cncnc2)nc1C(F)(F)F [Compound A4] | 0 | 1 | 4 | 0 | 1 | 0 | 1 | 1 | 5 | 1 | 2 | 1 | 
Cc1nn(-c2cncnc2)cc1N(C)C(=O)OC(C)(C)C [Compound A5, tert-butyl N-methyl-N-(3-methyl-1-pyrimidin-5-yl-pyrazol-4-yl)carbamate] | 1 | 4 | 5 | 1 | 2 | 4 | 4 | 0 | 5 | 2 | 5 | 2 | 
